The nature of assay [1]: DRUGMATRIX: Atrial Natriuretic Factor (ANF) radioligand binding (ligand: [125I] ANF (rat)). In kind it is cell membranes, Cavia porcellus, Dunkin-Hartley, Adrenal gland, Membrane. The conditions noted are these: Not Active = under 50% inhibition at 10 µM.
For assay [2], the target named is C-C chemokine receptor type 2 (Homo sapiens, UniProt P41597). In kind it is cell membranes, CHO-K1, Membrane. The note with it: cho-k1. Further: in other assays of this panel Not Active means under 50% inhibition at 10 µM.
A further assay deals with T1, Cathepsin G (Homo sapiens, UniProt P08311).
T1 sequence (P08311 whole entry): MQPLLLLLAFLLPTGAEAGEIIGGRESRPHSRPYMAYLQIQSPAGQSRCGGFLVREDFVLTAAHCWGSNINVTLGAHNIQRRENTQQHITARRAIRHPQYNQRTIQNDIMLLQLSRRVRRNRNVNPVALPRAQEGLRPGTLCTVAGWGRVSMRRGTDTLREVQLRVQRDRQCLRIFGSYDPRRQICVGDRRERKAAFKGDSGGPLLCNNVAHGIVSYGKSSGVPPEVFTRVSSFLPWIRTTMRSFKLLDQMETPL
In kind it is tissue-based. The conditions noted are these: neutrophil.

A further assay addresses T2, Thromboxane-A synthase (Homo sapiens, UniProt P24557).
T2 sequence (P24557 whole entry): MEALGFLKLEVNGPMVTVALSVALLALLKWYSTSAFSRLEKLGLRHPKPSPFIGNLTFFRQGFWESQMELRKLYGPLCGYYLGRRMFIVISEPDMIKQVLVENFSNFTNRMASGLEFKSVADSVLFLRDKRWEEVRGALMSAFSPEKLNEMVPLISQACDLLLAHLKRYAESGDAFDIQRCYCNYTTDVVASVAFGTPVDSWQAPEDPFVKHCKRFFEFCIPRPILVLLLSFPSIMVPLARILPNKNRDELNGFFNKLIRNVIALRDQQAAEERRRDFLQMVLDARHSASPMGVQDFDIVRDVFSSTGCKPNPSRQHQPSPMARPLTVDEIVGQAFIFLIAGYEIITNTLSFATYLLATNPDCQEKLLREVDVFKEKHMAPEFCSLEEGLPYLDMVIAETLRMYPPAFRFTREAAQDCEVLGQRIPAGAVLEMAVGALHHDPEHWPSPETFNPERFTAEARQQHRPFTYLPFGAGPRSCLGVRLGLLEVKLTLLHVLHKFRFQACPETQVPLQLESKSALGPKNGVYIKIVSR
Kind of assay: biochemical. In kind it is tissue-based, Platelet.

Assay [3] can be described thus: DRUGMATRIX: Purinergic P2X radioligand binding (ligand: [3H] alpha, beta-Methylene-ATP). In kind it is cell membranes, Oryctolagus cuniculus, New Zealand albino, Urinary bladder, Membrane. The note with it: Not Active = under 50% inhibition at 10 µM.
For assay [4], the target named is Aldo-keto reductase family 1 member B1 (Rattus norvegicus, UniProt P07943). Kind of assay: biochemical. In kind it is tissue-based, Lens of camera-type eye.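 Further: inhibition of aldose reductase enzyme activity, measured with DL-glyceraldehyde as the substrate; in other assays of this panel Not Active means under 50% inhibition at 10 µM.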
A short description of assay [5]: DRUGMATRIX: ATPase, Na+/K+ enzyme inhibition (substrate: ATP). In kind it is tissue-based, Sus scrofa, Heart. The conditions noted are these: Not Active = under 50% inhibition at 10 µM.
Assay [6] in a line: DRUGMATRIX: Leukotriene, BLT (LTB4) radioligand binding (ligand: [3H]LTB4). In kind it is cell membranes, Membrane. The conditions noted are these: u-937; Not Active = under 50% inhibition at 10 µM.

The results in this text go back to ChEMBL document CHEMBL1909046, “DrugMatrix in vitro pharmacology data”.

The term IC50 denotes the concentration that inhibits the measured activity by half.

C-C chemokine receptor type 2, sequence (P41597 whole entry): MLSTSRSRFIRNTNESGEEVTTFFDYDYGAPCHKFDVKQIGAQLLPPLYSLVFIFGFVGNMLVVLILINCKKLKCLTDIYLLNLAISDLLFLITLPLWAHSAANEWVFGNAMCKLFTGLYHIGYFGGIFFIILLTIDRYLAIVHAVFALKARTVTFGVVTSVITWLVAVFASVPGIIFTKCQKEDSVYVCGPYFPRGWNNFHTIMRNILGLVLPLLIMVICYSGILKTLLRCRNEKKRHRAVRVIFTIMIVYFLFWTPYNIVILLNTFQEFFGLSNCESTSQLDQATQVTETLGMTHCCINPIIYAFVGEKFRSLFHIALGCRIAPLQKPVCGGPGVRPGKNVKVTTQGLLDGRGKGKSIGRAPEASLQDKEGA

In the case of `O=c1[nH]c(=O)n([C@H]2C[C@H](O)[C@@H](CO)O2)cc1I` [IDOXURIDINE], the IC50 entry (in assay [1]; in assay [2]; against Cathepsin G; against Thromboxane-A synthase (platelet); in assay [3]; in assay [4]) was “Not Active” throughout. For the same compound, the half-inhibitory concentration (IC50) entry in assay [5] and in assay [6] was “Not Active” throughout. In addition, the Ki result in assay [1], in assay [3], in assay [5] and in assay [6] was “Not Active” throughout.
Turning to `CC(C)C(=O)Nc1ccc([N+](=O)[O-])c(C(F)(F)F)c1` [FLUTAMIDE], the IC50 result (in assay [1]; in assay [2]; on Cathepsin G; at Thromboxane-A synthase (platelet); in assay [3]; in assay [4]) was “Not Active” each time. For the same compound, the IC50 result in assay [5] and in assay [6] was “Not Active” throughout. The Ki entry in assay [1], in assay [3], in assay [5] and in assay [6] was “Not Active” in each case.
As to `CCC1(c2ccc(N)cc2)CCC(=O)NC1=O` (stereo not given) [AMINOGLUTETHIMIDE], the IC50 entry (in assay [1]; in assay [2]; at Cathepsin G; against Thromboxane-A synthase (platelet); in assay [3]; in assay [4]) was “Not Active” throughout. Also, the half-maximal inhibitory concentration (IC50) result in assay [5] and in assay [6] was “Not Active” each time. Besides, the Ki result in assay [1], in assay [3], in assay [5] and in assay [6] was “Not Active” in each case.
As to `Cc1ccc2cc3c(ccc4ccccc43)c3c2c1CC3` [3-METHYLCHOLANTHRENE], the concentration for half-maximal inhibition (IC50) result (in assay [1]; in assay [2]; against Cathepsin G; against Thromboxane-A synthase (platelet); in assay [3]; in assay [4]) was “Not Active” each time. The IC50 result in assay [5] and in assay [6] was “Not Active” throughout. Also, the Ki entry in assay [1], in assay [3], in assay [5] and in assay [6] was “Not Active” throughout.
Take `O=C(O)CCCc1ccc(N(CCCl)CCCl)cc1` [CHLORAMBUCIL]: the half-inhibitory concentration (IC50) entry in assay [1] is “Not Active”; in assay [2] it was “Not Active”; on Cathepsin G, “Not Active”; on Thromboxane-A synthase (platelet), “Not Active”; in assay [3] it was “Not Active”; in assay [4] (read-out: IC50), 9.41 µM. For the same compound, the IC50 entry in assay [5] and in assay [6] was “Not Active” throughout. Moreover, the Ki result in assay [1], in assay [3], in assay [5] and in assay [6] was “Not Active” in each case.
Regarding `CC(NC(C)(C)C)C(=O)c1cccc(Cl)c1` (stereo not given) [BUPROPION], the IC50 entry (in assay [1]; in assay [2]; at Cathepsin G; at Thromboxane-A synthase (platelet); in assay [3]; in assay [4]) was “Not Active” each time. The IC50 result in assay [5] and in assay [6] was “Not Active” in each case. Further, the Ki entry in assay [1], in assay [3], in assay [5] and in assay [6] was “Not Active” throughout.
On to `C=C(C)C1(O)OC(=O)C=C1OC` (stereo not given) [PENICILLIC ACID], for which the half-inhibitory concentration (IC50) entry (in assay [1]; in assay [2]; on Cathepsin G; on Thromboxane-A synthase (platelet); in assay [3]; in assay [4]) was “Not Active” throughout. In addition, the IC50 result in assay [5] and in assay [6] was “Not Active” each time. In addition, the Ki result in assay [1], in assay [3], in assay [5] and in assay [6] was “Not Active” in each case.
For the compound `CCCC1O[C@@H]2C[C@H]3[C@@H]4CCC5=CC(=O)C=C[C@]5(C)[C@H]4[C@@H](O)C[C@]3(C)[C@]2(C(=O)CO)O1` (stereo not given in full) [BUDESONIDE], the IC50 result (in assay [1]; in assay [2]; at Cathepsin G; at Thromboxane-A synthase (platelet); in assay [3]; in assay [4]) was “Not Active” in each case. Besides, the IC50 result in assay [5] and in assay [6] was “Not Active” in each case. Further, the Ki entry in assay [1], in assay [3], in assay [5] and in assay [6] was “Not Active” throughout.
Regarding `COCCc1ccc(OCC(O)CNC(C)C)cc1` (stereo not given) [METOPROLOL], the IC50 entry (in assay [1]; in assay [2]; at Cathepsin G; at Thromboxane-A synthase (platelet); in assay [3]; in assay [4]) was “Not Active” in each case. For the same compound, the IC50 result in assay [5] and in assay [6] was “Not Active” each time. The Ki result in assay [1], in assay [3], in assay [5] and in assay [6] was “Not Active” in each case.
Regarding `CC1CC(OC(=O)C(O)c2ccccc2)CC(C)(C)C1` (stereo not given) [CYCLANDELATE], the IC50 entry (in assay [1]; in assay [2]; against Cathepsin G; on Thromboxane-A synthase (platelet); in assay [3]; in assay [4]) was “Not Active” in each case. Moreover, the IC50 result in assay [5] and in assay [6] was “Not Active” each time. Moreover, the Ki entry in assay [1], in assay [3], in assay [5] and in assay [6] was “Not Active” each time.
As to `C1CCC(C(CC2CCCCN2)C2CCCCC2)CC1` (stereo not given) [PERHEXILINE], the half-maximal inhibitory concentration (IC50) entry (in assay [1]; in assay [2]; at Cathepsin G; on Thromboxane-A synthase (platelet); in assay [3]; in assay [4]) was “Not Active” each time. Besides, the IC50 entry in assay [5] and in assay [6] was “Not Active” each time. The Ki entry in assay [1], in assay [3], in assay [5] and in assay [6] was “Not Active” each time.
On to `CC(C)[C@H]1C(=O)N2CCC[C@H]2[C@]2(O)O[C@](NC(=O)[C@@H]3C=C4c5cccc6[nH]cc(c56)C[C@H]4N(C)C3)(C(C)C)C(=O)N12` [ERGOCORNINE], for which the IC50 entry is “Not Active” in assay [1]; “Not Active” in assay [2]; “Not Active” at Cathepsin G; 1.99 µM on Thromboxane-A synthase (read-out: IC50); “Not Active” in assay [3]; “Not Active” in assay [4]. For the same compound, the concentration for half-maximal inhibition (IC50) result in assay [5] and in assay [6] was “Not Active” each time. For the same compound, the Ki result in assay [1], in assay [3], in assay [5] and in assay [6] was “Not Active” throughout.
`CC(C)[C@@]1(NC(=O)[C@@H]2C[C@@H]3c4cccc5[nH]cc(c45)C[C@H]3N(C)C2)O[C@@]2(O)[C@@H]3CCCN3C(=O)[C@H](Cc3ccccc3)N2C1=O.CS(=O)(=O)O` [DIHYDROERGOCRISTINE MESYLATE]: the IC50 result (in assay [1]; in assay [2]; against Cathepsin G; against Thromboxane-A synthase (platelet); in assay [3]; in assay [4]) was “Not Active” in each case. Also, the IC50 result in assay [5] and in assay [6] was “Not Active” throughout. Moreover, the Ki result in assay [1], in assay [3], in assay [5] and in assay [6] was “Not Active” each time.
For the compound `C[C@]12CCC(=O)C=C1CC[C@@H]1[C@@H]2CC[C@@]2(C)[C@H]1CC[C@]2(C)O` [METHYLTESTOSTERONE], the concentration for half-maximal inhibition (IC50) entry (in assay [1]; in assay [2]; against Cathepsin G; on Thromboxane-A synthase (platelet); in assay [3]; in assay [4]) was “Not Active” in each case. The IC50 result in assay [5] and in assay [6] was “Not Active” each time. Also, the Ki entry in assay [1], in assay [3], in assay [5] and in assay [6] was “Not Active” each time.
Regarding `Nc1nc2c(ncn2COCCO)c(=O)[nH]1` [ACYCLOVIR], the IC50 entry (in assay [1]; in assay [2]; against Cathepsin G; on Thromboxane-A synthase (platelet); in assay [3]; in assay [4]) was “Not Active” throughout. Also, the IC50 result in assay [5] and in assay [6] was “Not Active” in each case. Further, the Ki entry in assay [1], in assay [3], in assay [5] and in assay [6] was “Not Active” each time.
